Counter-ions that a name gives are not always drawn. Like-named read-outs stand apart in the source and are kept apart here.
Columns and labels:
AMPA receptor = test: Affinity for the AMPA receptor; assay type: binding
[1] = tested on: AMPA response of spinal neurons in the dorsal horn; test: Microiontophoresis on anaesthetized rats (evoked potentials of dorsal horn cells after application of excitatory amino acids); assay type: in vivo; settings: for ED50: Rattus norvegicus, Neuron, read-out: ED50 of inhibition of the AMPA response; for Inhibition of the AMPA response of spinal neurons (in words): microiontophoretic NMDA, kainate
Description: (derivation of evoked ascending potentials of individual cells in the dorsal horn of the spinal cord of anaesthetized rats after microiontophoretic application of excitatory amino acids (EAAs))
Male rats (Sprague Dawley, Janvier) with a body weight of from 280 g to 350 g were used. To induce the anaesthesia, inhalation anaesthetization was carried out with 4.0-5.0% halothane in a mixture of 200 ml/min oxygen (O2) and 400 ml/min dinitrogen monoxide (N2O) in a plexiglas anaesthetization box. During the preparatory phase, the halothane concentration was reduced to 1.0-1.5%. For the rest of the experiment, the inhalation anaesthetization was then replaced by bolus application of 40 mg/kg of chloralose in 3.5% Haemaccel solution (i.v.) and maintained by continuous infusion of 20 mg/kg/2.0 ml/h of chloralose. After the induction anaesthetization (4.0-5.0% halothane, see above), the tracheal tube was fitted through a syringe cylinder (20 ml Omnifix, Luer) shortened to about 20 mm, which was placed over the mouth and nose of the animals, with a 2.5% halothane concentration. The halothane concentration was then reduced to about 1.5%. Exhaled air was extracted through a closed system. For the application of test substances, a PE-20 (1.09*0.38mm) catheter was fitted into the dorsal branch of the left V. jugularis. A PE-50 tube (0.9569 mm*0.58 mm) was inserted into the left arteria carotis as a catheter for continuously monitoring the blood pressure. For the laminectomy, the animals were then placed in the prone position. An incision was made along the midline from the nape of the neck to the pelvic region. A blood-pressure drop frequently observed following this was treated by local application of lidocaine HCl with adrenaline (xylocitin 2% with adrenaline 0.001%, Jenapharm). The superficial tissue layers on both sides of the spinal column were removed in the vicinity of the vertebral bodies from sacral 2 (S2) to thoracic 8 (Th8). The musculature associated with the vertebral bodies was also removed by careful scraping with a scalpel. The actual laminectomy begins at vertebral body L2 (lumbar 2), after removing the processus spinalis from vertebra L3, and extends into the TH8 rostral region as far as where the large dorsal veins branch off laterally and caudally. The bones of the individual vertebral bodies were carefully removed in small stages by means of fine rongeurs. The musculature around TH8/9 and L1/S2 was also removed, so that immobilization clamps could be fitted later. Exposed tissue was protected against drying by applied 0.9% strength NaCI solution or thin PVC strips. […] In addition to the blood pressure, the local blood circulation was visually assessed, a pink skin color of the paws indicating normal microcirculation. […]

NMRI mice = test: Phenylquinone-induced writhing test on mice; assay type: in vivo; settings: 10 min; mouse, i.v., phenylquinone i.p. 10 minutes after substance
Description: The anti-nociceptive efficacy of the compounds according to the invention was studied on mice with the phenylquinone-induced writhing test, modified after I. C. Hendershot, J. Forsaith, J. Pharmacol. Exp. Ther. 125, 237-240 (1959). Male NMRI mice with a weight of from 25-30 g were used for this purpose. 10 minutes after intravenous administration of a compound according to the invention, groups of 10 animals per substance dose were intraperitoneally given 0.3 ml/mouse of a 0.02% strength aqueous solution of phenylquinone (phenylbenzoquinone, Sigma, Deisenhofen; production of the solution with the addition of 5% ethanol and storage in a water bath at 45° C.). The animals were placed individually in observation cages. The number of pain-induced stretching movements (so-called writhing reactions =straightening of the body with stretching of the hind extremities) were counted by means of a push-button counter 5-20 minutes after the phenylquinone administration. Animals which received physiological saline solution i.v. and phenylquinone […]. were also included as a control.
All the substances were tested in the standard dose of 10 mg/kg. The percentage inhibition (% inhibition) of the writhing reactions by a substance was calculated according to the following formula:
% inhibition=100−[WR of treated animals/ WR of control×100]

Sprague Dawley rats = test: Mechanical hyperalgesia after paw incision on rats (paw incision model); assay type: in vivo
Description: In this model, the pain due to a wound in the vicinity of an incision on the plantar side of a hind paw of the rat is studied as a model of postoperative pain (Brennan, T. J., Vandermeulen, E. P., Gebhart, G. F., Pain (1996) 493-501). For this purpose, the retraction latency after point mechanical stimulation with an electronic von Frey filament is determined. After the paw incision, a mechanical hyperalgesia develops and remains stable over several days.
Male Sprague Dawley rats (body weight 200-300 g) are used. […]
By using an electronic von Frey filament (Digital Transducer Indicator Model 1601C, IITC Inc.), the retraction threshold of the paw, expressed in grams, after point mechanical stimulation is determined. For this purpose, the retraction threshold is measured five times per measurement point at an interval of 30 sec, and the individual median is determined, with the aid of which the average of the animal population is calculated. […]
To study the primary hyperalgesia, the retraction threshold on the ipsilateral paw is determined in the immediate vicinity of the incision, and also in the same position on the contralateral paw. […]
The Mann-Whitney U test is used for the significance calculation (p<0.05). For dose-dependent effects, the ED50 value is determined with the aid of a regression analysis.

| Compound | Affinity for the AMPA receptor (in words) (AMPA receptor) | ED50 ([1]; anaesthetized rats, spinal neurons in the dorsal horn) [mg/kg] | Inhibition of the AMPA response of spinal neurons (in words) ([1]; anaesthetized rats) | ED50 (NMRI mice) [mg/kg] | % MPE, retraction threshold of the ipsilateral paw (Sprague Dawley rats; 464 mg/kg i.p.) | % MPE, retraction threshold of the ipsilateral paw (Sprague Dawley rats; 100 mg/kg) | ED50 [1] [mg/kg] |
| --- | --- | --- | --- | --- | --- | --- | --- |
| CCCC(CC)C(N)C(=O)[O-].[Na+] (racemic) | without having any AMPA affinity | 60 | selective inhibition of the AMPA response |  |  |  |  |
| CCCCCC(C)C(N)C(=O)O (racemic) [Compound 2, rac-2-amino-3-methyl-octanoic acid hydrochloride as a 1:1 D/L mixture] |  |  |  | 28 |  |  |  |
| CCCC(CC)C(N)C(=O)O.Cl (racemic) [Compound 7, rac-amino-3-ethyl-hexanoic acid hydrochloride as a 1:1 D/L mixture] |  |  |  |  | 30% MPE (464 mg/kg i.p.) |  |  |
| NCC1(CC(=O)O)CCCCC1 [Gabapentin] | no affinity for the AMPA receptor |  | dose-dependent and selective inhibition of the AMPA response | 38 |  | 66% MPE (100 mg/kg) | 106 |
